In PubChem BioAssay AID256 (DTP/NCI, 2004):
Toxic doses and inconclusive results are not listed.

Tested on: CD2F1 mice, L1210 leukemia ip, survival T/C
Assay: NCI In Vivo Anticancer Drug Screen. Data for tumor model L1210 Leukemia (intraperitoneal) in CD2F1 (CDF1) mice
Conditions: higher = longer survival
Method in brief: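 Antitumor effect is scored in animals hosting a serially transplanted tumor. Values compare compound-dosed animals against vehicle-only controls as a simple quotient.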

[1] = endpoint: mean survival time, dose: 100.0 mg/kg/injection, schedule: Q01DX009 (ip), vehicle: saline with Tween-80
[2] = endpoint: mean survival time, dose: 200.0 mg/kg/injection, schedule: Q01DX009 (ip), vehicle: saline with Tween-80
[3] = endpoint: mean survival time, dose: 400.0 mg/kg/injection, schedule: Q01DX009 (ip), vehicle: saline with Tween-80
[4] = endpoint: mean survival time, dose: 100.0 mg/kg/injection, schedule: Q04DX003 (ip), vehicle: saline with Tween-80
[5] = endpoint: mean survival time, dose: 200.0 mg/kg/injection, schedule: Q04DX003 (ip), vehicle: saline with Tween-80
[6] = endpoint: mean survival time, dose: 400.0 mg/kg/injection, schedule: Q04DX003 (ip), vehicle: saline with Tween-80
[7] = endpoint: mean survival time, dose: 100.0 mg/kg/injection, schedule: Q04DX003 (ip), vehicle: saline
[8] = endpoint: mean survival time, dose: 200.0 mg/kg/injection, schedule: Q04DX003 (ip), vehicle: saline
[9] = endpoint: mean survival time, dose: 400.0 mg/kg/injection, schedule: Q04DX003 (ip), vehicle: saline
[10] = endpoint: mean survival time, dose: 100.0 mg/kg/injection, schedule: Q01DX001 (ip), vehicle: Klucel (hydroxypropylcellulose) (HPC)
[11] = endpoint: mean survival time, dose: 100.0 mg/kg/injection, schedule: Q01DX009 (ip), vehicle: Klucel (hydroxypropylcellulose) (HPC)
[12] = endpoint: mean survival time, dose: 200.0 mg/kg/injection, schedule: Q01DX001 (ip), vehicle: Klucel (hydroxypropylcellulose) (HPC)
[13] = endpoint: mean survival time, dose: 200.0 mg/kg/injection, schedule: Q01DX009 (ip), vehicle: Klucel (hydroxypropylcellulose) (HPC)
[14] = endpoint: mean survival time, dose: 400.0 mg/kg/injection, schedule: Q01DX001 (ip), vehicle: Klucel (hydroxypropylcellulose) (HPC)

With O=C(CCN1CC1)NCCCCCCCCNC(=O)CCN1CC1 the T/C (endpoint: mean survival time, dose: 22.0 mg/kg/injection, schedule: Q01DX001 (ip), vehicle: carboxymethylcellulose (CMC)) was 101 % of control, the T/C (endpoint: mean survival time, dose: 33.0 mg/kg/injection, schedule: Q01DX001 (ip), vehicle: carboxymethylcellulose (CMC)) was 112 % of control and the T/C (endpoint: mean survival time, dose: 50.0 mg/kg/injection, schedule: Q01DX001 (ip), vehicle: carboxymethylcellulose (CMC)) was 113 % of control.

In the case of CC(=O)NCCc1ccc2c(c1)[nH]c1ccccc12, the T/C (endpoint: mean survival time, dose: 100.0 mg/kg/injection, schedule: Q01DX001 (ip), vehicle: saline) is reported as 101 % of control, the T/C (endpoint: mean survival time, dose: 200.0 mg/kg/injection, schedule: Q01DX001 (ip), vehicle: saline) is reported as 100 % of control and the T/C (endpoint: mean survival time, dose: 400.0 mg/kg/injection, schedule: Q01DX001 (ip), vehicle: saline) is reported as 93 % of control.

For CN(C)c1ccc(C2OC3(CCCCC3)C[N+]23CCCC3)cc1 (configuration not stated), the T/C (endpoint: mean survival time, dose: 3.12 mg/kg/injection, schedule: Q01DX009 (ip), vehicle: saline with Tween-80) was 101 % of control, the T/C (endpoint: mean survival time, dose: 6.25 mg/kg/injection, schedule: Q01DX009 (ip), vehicle: saline with Tween-80) was 97 % of control and the T/C (endpoint: mean survival time, dose: 12.5 mg/kg/injection, schedule: Q01DX009 (ip), vehicle: saline with Tween-80) was 97 % of control.

For COc1ccc(OC)c(NC(=O)C2CC2)c1, the T/C [1] was 97 % of control, the T/C [2] was 102 % of control and the T/C [3] was 98 % of control.

c1ccc(C2=Nc3ccccc3C(c3ccccc3)=Nc3ccccc32)cc1 was tested, and the T/C [4] was 109 % of control, the T/C [5] was 91 % of control and the T/C [6] was 101 % of control.

COc1cc(Cl)ccc1NC(=O)Oc1c(OC)cccc1OC was tested, and the T/C [1] was 100 % of control, the T/C [2] was 106 % of control and the T/C [3] was 103 % of control.

In the case of O=S(=O)(F)c1ccc2nc(-c3cccc(Sc4ccccc4)c3)cc(Cl)c2c1, the T/C [1] is reported as 97 % of control, the T/C [4] is reported as 97 % of control and the T/C [2] is reported as 93 % of control. For the same compound, the T/C [5] was 90 % of control, the T/C [3] was 97 % of control and the T/C [6] was 96 % of control.

In the case of CCCCNC(C)(C)C(SSSC(c1ccc(C(F)(F)F)cc1)C(C)(C)NCCCC)c1ccc(C(F)(F)F)cc1 (configuration not stated), the T/C [7] is reported as 92 % of control, the T/C [8] is reported as 94 % of control and the T/C [9] is reported as 100 % of control.

CN1CCN(C(=O)NCCCl)CC1 was tested, and the T/C (endpoint: mean survival time, dose: 5.0 mg/kg/injection, schedule: Q01DX009 (ip), vehicle: saline) was 107 % of control, the T/C (endpoint: mean survival time, dose: 5.0 mg/kg/injection, schedule: Q04DX003 (ip), vehicle: saline) was 93 % of control and the T/C (endpoint: mean survival time, dose: 10.0 mg/kg/injection, schedule: Q01DX009 (ip), vehicle: saline) was 94 % of control. For the same compound, the T/C (endpoint: mean survival time, dose: 10.0 mg/kg/injection, schedule: Q04DX003 (ip), vehicle: saline) was 92 % of control and the T/C (endpoint: mean survival time, dose: 20.0 mg/kg/injection, schedule: Q04DX003 (ip), vehicle: saline) was 92 % of control.

With O=[N+]([O-])c1ccc(N=Cc2ccc3c(c2)OCO3)cc1 the T/C [10] was 106 % of control, the T/C [11] was 96 % of control and the T/C [12] was 101 % of control. For the same compound, the T/C [13] was 97 % of control, the T/C [14] was 96 % of control and the T/C (endpoint: mean survival time, dose: 400.0 mg/kg/injection, schedule: Q01DX009 (ip), vehicle: Klucel (hydroxypropylcellulose) (HPC)) was 96 % of control.

O=C(Nc1cccnc1)c1ccc([N+](=O)[O-])s1 was tested, and the T/C (endpoint: mean survival time, dose: 50.0 mg/kg/injection, schedule: Q01DX005 (ip), vehicle: saline + alcohol) was 111 % of control, the T/C (endpoint: mean survival time, dose: 50.0 mg/kg/injection, schedule: Q01DX005 (ip), vehicle: saline) was 110 % of control and the T/C (endpoint: mean survival time, dose: 100.0 mg/kg/injection, schedule: Q01DX005 (ip), vehicle: saline + alcohol) was 121 % of control. The T/C (endpoint: mean survival time, dose: 100.0 mg/kg/injection, schedule: Q01DX005 (ip), vehicle: saline) was 160 % of control, the T/C (endpoint: mean survival time, dose: 200.0 mg/kg/injection, schedule: Q01DX005 (ip), vehicle: saline + alcohol) was 107 % of control and the T/C (endpoint: mean survival time, dose: 200.0 mg/kg/injection, schedule: Q01DX005 (ip), vehicle: saline) was 122 % of control. The T/C (endpoint: median survival time, dose: 25.0 mg/kg/injection, schedule: Q01DX005 (ip), vehicle: saline) was 119 % of control, the T/C (endpoint: median survival time, dose: 36.0 mg/kg/injection, schedule: Q01DX005 (ip), vehicle: saline) was 115 % of control and the T/C (endpoint: median survival time, dose: 50.0 mg/kg/injection, schedule: Q01DX005 (ip), vehicle: saline) was 116 % of control. For the same compound, the T/C (endpoint: median survival time, dose: 60.0 mg/kg/injection, schedule: Q01DX005 (ip), vehicle: saline) was 121 % of control.

In the case of CC(=O)Nc1ccc(Br)cn1, the T/C (endpoint: mean survival time, dose: 100.0 mg/kg/injection, schedule: Q01DX001 (ip), vehicle: saline with Tween-80) is reported as 97 % of control, the T/C (endpoint: mean survival time, dose: 200.0 mg/kg/injection, schedule: Q01DX001 (ip), vehicle: saline with Tween-80) is reported as 105 % of control and the T/C (endpoint: mean survival time, dose: 400.0 mg/kg/injection, schedule: Q01DX001 (ip), vehicle: saline with Tween-80) is reported as 102 % of control.

For CCCCCC(O)C(O)CC(O)C(O)CCCCCCCC(=O)O (configuration not stated), the T/C [7] was 94 % of control, the T/C [8] was 91 % of control and the T/C [9] was 100 % of control.

In the case of C1CC[N-]CC1.C1CC[N-]CC1.N#C[S-].N#C[S-].[Cu], the T/C (endpoint: mean survival time, dose: 2.5 mg/kg/injection, schedule: Q04DX003 (ip), vehicle: saline with Tween-80) is reported as 98 % of control and the T/C (endpoint: mean survival time, dose: 5.0 mg/kg/injection, schedule: Q04DX003 (ip), vehicle: saline with Tween-80) is reported as 92 % of control.

CCOC(=O)C1(C(=O)OCC)C(C)CC(O)N1C(=O)c1ccccc1[N+](=O)[O-] (configuration not stated) was tested, and the T/C [10] was 100 % of control, the T/C [12] was 96 % of control and the T/C [14] was 104 % of control.

In the case of CC1=C(C)C(=O)C(CC2=C(C)C(=O)C(C)=C(C)C2=O)=C(C)C1=O, the T/C (endpoint: mean survival time, dose: 100.0 mg/kg/injection, schedule: Q04DX002 (ip), vehicle: saline with Tween-80) is reported as 102 % of control, the T/C (endpoint: mean survival time, dose: 200.0 mg/kg/injection, schedule: Q04DX002 (ip), vehicle: saline with Tween-80) is reported as 91 % of control and the T/C (endpoint: mean survival time, dose: 400.0 mg/kg/injection, schedule: Q04DX002 (ip), vehicle: saline with Tween-80) is reported as 109 % of control.

With O=CC(O)C(O)C(O)C(O)CO (configuration not stated) the T/C (endpoint: mean survival time, dose: 100.0 mg/kg/injection, schedule: Q01DX009 (ip), vehicle: saline) was 93 % of control, the T/C (endpoint: mean survival time, dose: 200.0 mg/kg/injection, schedule: Q01DX009 (ip), vehicle: saline) was 91 % of control and the T/C (endpoint: mean survival time, dose: 0.2 grams/kg/injection, schedule: Q03DX003 (ip), vehicle: water) was 100 % of control. For the same compound, the T/C (endpoint: mean survival time, dose: 400.0 mg/kg/injection, schedule: Q01DX009 (ip), vehicle: saline) was 95 % of control, the T/C (endpoint: mean survival time, dose: 0.4 grams/kg/injection, schedule: Q03DX003 (ip), vehicle: water) was 108 % of control and the T/C (endpoint: mean survival time, dose: 0.8 grams/kg/injection, schedule: Q03DX003 (ip), vehicle: water) was 107 % of control. For the same compound, the T/C (endpoint: mean survival time, dose: 1.5 grams/kg/injection, schedule: Q03DX003 (ip), vehicle: water) was 100 % of control, the T/C (endpoint: mean survival time, dose: 3.0 grams/kg/injection, schedule: Q03DX003 (ip), vehicle: water) was 101 % of control and the T/C (endpoint: mean survival time, dose: 6.0 grams/kg/injection, schedule: Q03DX003 (ip), vehicle: water) was 100 % of control. For the same compound, the T/C (endpoint: mean survival time, dose: 12.0 grams/kg/injection, schedule: Q03DX003 (ip), vehicle: water) was 106 % of control, the T/C (endpoint: median survival time, dose: 75.0 mg/kg/injection, schedule: Q01DX009 (ip), vehicle: saline) was 101 % of control and the T/C (endpoint: median survival time, dose: 150.0 mg/kg/injection, schedule: Q01DX009 (ip), vehicle: saline) was 101 % of control. For the same compound, the T/C (endpoint: median survival time, dose: 300.0 mg/kg/injection, schedule: Q01DX009 (ip), vehicle: saline) was 100 % of control, the T/C (endpoint: median survival time, dose: 600.0 mg/kg/injection, schedule: Q01DX009 (ip), vehicle: saline) was 100 % of control and the T/C (endpoint: median survival time, dose: 1200.0 mg/kg/injection, schedule: Q01DX009 (ip), vehicle: saline) was 102 % of control.

C[n+]1ccn(C(CC(=O)O)C(=O)O)c1 (configuration not stated) was tested, and the T/C [7] was 101 % of control, the T/C [8] was 103 % of control and the T/C [9] was 106 % of control.

For CO/N=C/c1ccc([N+](=O)[O-])s1, the T/C (endpoint: mean survival time, dose: 50.0 mg/kg/injection, schedule: Q01DX009 (ip), vehicle: saline) was 116 % of control.

With O=[N+]([O-])c1ccc(/C=N\N=C\c2ccc([N+](=O)[O-])cc2)cc1 the T/C (endpoint: mean survival time, dose: 50.0 mg/kg/injection, schedule: Q01DX009 (ip), vehicle: Klucel (hydroxypropylcellulose) (HPC)) was 106 % of control, the T/C [11] was 106 % of control and the T/C [13] was 109 % of control.

In the case of COC1OC(COC(C)=O)C(OC2OC(COC(C)=O)C(OC(C)=O)C(OC(C)=O)C2OC(C)=O)C(OC(C)=O)C1OC(C)=O (configuration not stated), the T/C [1] is reported as 98 % of control, the T/C [2] is reported as 104 % of control and the T/C [3] is reported as 106 % of control.

In the case of C(=NC1CCCCC1)c1c[nH]c2ccccc12, the T/C [1] is reported as 87 % of control, the T/C [4] is reported as 91 % of control and the T/C [2] is reported as 89 % of control. For the same compound, the T/C [5] was 91 % of control and the T/C [6] was 98 % of control.
